Laboratory results from patent publication US7282592B2, “Resorcinol derivatives” (Warner-Lambert Company, priority 2000, dated 2007).

Molecular target: T1, human tyrosinase (Homo sapiens, UniProt P14679)
T1 construct: endogenous in cells; host or cells: SKMEL 188 human melanoma cell line (lysate)
T1 sequence (P14679 19-529): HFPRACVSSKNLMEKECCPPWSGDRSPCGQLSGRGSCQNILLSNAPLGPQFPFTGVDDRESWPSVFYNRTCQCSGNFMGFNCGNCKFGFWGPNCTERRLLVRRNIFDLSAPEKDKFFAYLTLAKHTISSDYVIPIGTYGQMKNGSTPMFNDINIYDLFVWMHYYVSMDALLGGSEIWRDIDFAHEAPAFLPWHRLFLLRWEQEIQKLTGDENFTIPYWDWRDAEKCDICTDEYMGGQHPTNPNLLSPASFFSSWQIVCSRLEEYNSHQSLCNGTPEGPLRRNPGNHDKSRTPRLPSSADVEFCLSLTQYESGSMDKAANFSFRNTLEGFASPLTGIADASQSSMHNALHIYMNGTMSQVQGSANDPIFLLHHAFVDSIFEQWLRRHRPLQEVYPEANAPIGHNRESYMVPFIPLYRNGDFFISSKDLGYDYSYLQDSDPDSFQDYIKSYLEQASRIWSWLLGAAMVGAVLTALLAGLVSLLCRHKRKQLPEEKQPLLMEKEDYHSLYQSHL
Assay: Tyrosinase (DOPA Oxidase) Assay Using Cell Lysate
Type: biochemical
Conditions: SKMEL 188 human melanoma cell lysates, L-DOPA 100 μg/ml, incubated 8 hrs, read at 405 nm
Method: 1. Tyrosinase (DOPA Oxidase) Assay Using Cell Lysate
Human melanoma cell line, SKMEL 188 (licensed from Memorial Sloan-Kettering), is used in the cell lysate assay and the screen. In the assay, compounds and L-dihydroxyphenylalanine (L-DOPA) (100 μg/ml) are incubated with the cell lysates containing human tyrosinase for 8 hrs before the plates are read at 405 nm.

Structure (SMILES): Cc1ccc(S(=O)(=O)N[C@H]2CC[C@H](c3ccc(O)cc3O)CC2)cc1 [Example 14, N-[trans-4-(2,4-Dihydroxyphenyl)cyclohexyl]-4-methylbenzenesulfonamide]
- IC50: ~4 µM
